Reference: US20230146870A1, “METHOD TO QUANTIFY AFFINITY AND SELECTIVITY OF SMALL MOLECULES FOR PROTEINS IN LIVING CELLS” (Ohio State Innovation Foundation, priority 2021, published 2023)
“Also recorded” adds a separate entry of the source.

Experiments:
murine PKCβI-mVenus = molecular target: T1, murine PKCβI-mVenus (Mus musculus, UniProt P68404); assay: FPCBA saturation binding, HEK293 cells expressing PKCβI-mVenus (Example 3)
T1 construct: fused on or other part: mVenus at the C-terminus
Text: (§1) To investigate the potential for quantitative analysis of binding to PKCs expressed in cells, we evaluated whether 1-3 could readily achieve equilibrium, which is necessary for measurements of cellular equilibrium dissociation constants (Kd).

murine PKCα-mVenus = murine PKCα-mVenus (Mus musculus, UniProt P20444); assay: FPCBA saturation binding of probe 1, HEK293 cells expressing PKCα-mVenus (Example 3)
[1] = tested on: HEK293 cells expressing PKCβI-mVenus; assay: Kinetics of uptake of probes in HEK293 cells transiently transfected with PKCβI-mVenus; assay type: cell-based; conditions: probe 1 μM, room temperature, BIM1 2 μM, 4% FBS
Description: Cells were treated with probes and analyzed by flow cytometry. […] [BIM1]=2 μM. [FBS]=4%.
as §1
The cells were re-suspended in fresh reduced serum media lacking antibiotics (4% FBS) at a cell density of ˜500,000 cells per mL and were added to a 96-well plate (100 μL per well). […] Fluorescent probes were prepared as absorbance-normalized 1 mM DMSO stock solutions and diluted into reduced serum DMEM media lacking antibiotics (4% FBS) to achieve a final concentration of the probe of 1 μM ([…]). [BIM1]=2 μM. After addition of probes, cells were analyzed at room temperature every 5 min as singletons. Living cells with the greatest green fluorescence from expression of mVenus (top 20%, transfected) and the lowest green fluorescence (bottom 20%, non-transfected) were gated to obtain median PB450 values of uptake of the fluorescent probes. For the slower kinetics of uptake of probe 3, cells were analyzed every 20 min in triplicate. These curves were fitted with a one-phase association model (GraphPad Prism 9) to determine t1/2 values.

[2] = molecular target: T2, native (untagged) murine PKCβI (Mus musculus, UniProt P68404); assay: FPCBA saturation binding of probe 1, native PKCβI (IRES-mVenus) in HEK293 cells
T2 construct: For coexpression of full-length unmodified PKC proteins with mVenus as an independent marker; expressed in transfected cells; host or cells: HEK293 (transient, pIRES-mVenus)
Description: To measure the binding of 1 and 2 to PKCβI in cells, we used flow cytometry to analyze the blue fluorescence of transfected and non-transfected cells as a function of probe concentration at equilibrium (FIGS. 37A-37F). In these assays, we directly compared the PKCβI-mVenus fusion protein with native PKCβI expressed separately from mVenus. […] This low background signal facilitated saturation binding assays, where non-specific binding of probes to non-transfected cells was subtracted from total binding to highly transfected cells (P2 gate) to measure specific binding. […] We further compared cells treated with and without the orthosteric PKC catalytic inhibitor BIM1 to block the kinase activity of PKC and isolate the analysis of interactions of 1 and 2 with the C1 regulatory domains of PKCbI.

[3] = molecular target: T3, native (untagged) murine PKCζ (Mus musculus, UniProt Q02956); assay: FPCBA saturation binding of probe 1, native PKCζ (IRES-mVenus) in HEK293 cells; conditions: BIM1 2 μM, 2 h at 37° C., 4% FBS
T3 sequence (Q02956 1-592): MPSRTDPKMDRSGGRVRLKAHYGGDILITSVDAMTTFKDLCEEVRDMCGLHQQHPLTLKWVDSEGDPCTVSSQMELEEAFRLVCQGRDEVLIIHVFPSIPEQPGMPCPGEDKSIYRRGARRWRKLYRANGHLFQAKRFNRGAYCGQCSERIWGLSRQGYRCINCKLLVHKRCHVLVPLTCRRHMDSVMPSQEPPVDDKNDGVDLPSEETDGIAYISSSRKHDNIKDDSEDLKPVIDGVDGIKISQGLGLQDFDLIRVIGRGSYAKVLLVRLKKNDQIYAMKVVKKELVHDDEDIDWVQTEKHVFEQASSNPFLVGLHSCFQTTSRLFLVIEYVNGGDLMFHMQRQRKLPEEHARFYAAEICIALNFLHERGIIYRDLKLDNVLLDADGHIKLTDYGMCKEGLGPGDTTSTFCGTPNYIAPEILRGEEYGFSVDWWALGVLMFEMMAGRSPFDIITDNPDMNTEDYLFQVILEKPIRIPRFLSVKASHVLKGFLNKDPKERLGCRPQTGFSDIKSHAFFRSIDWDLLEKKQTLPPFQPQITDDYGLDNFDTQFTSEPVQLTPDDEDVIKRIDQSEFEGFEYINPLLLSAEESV

PKCβI-mVenus = molecular target: T4, PKCβI-mVenus (Mus musculus, UniProt P68404); assay: Confocal microscopy of translocation of PKCβI-mVenus in HEK293 cells; assay type: cell-based; conditions: 2 μM, 2 h
T4 construct: we generated expression vectors for eight full-length mouse isozymes; expressed in transfected cells; host or cells: HEK293 (ATCC CRL-1573), transient transfection with CMV-PKC betaI-mVenus-N1
Description: FIGS. 36A-36D provide confocal and DIC micrographs of living HEK293 cells transiently transfected to express PKCβI-mVenus. […] Scale bars=10 microns.
This IRES vector was derived from a previously reported^52 variant encoding the somewhat less fluorescent protein Venus.
Living cells cultured on an 8-well chamber glass slide (Ibidi μ-Slide, 300 μL, 100,000 cells/well) were imaged with an inverted Leica TCS SP8 confocal laser-scanning microscope (63× oil-immersion objective). Fluorescent probes were excited at 405 nm and mVenus was excited at 488 nm. Emitted photons were collected from 425-500 nm and 500-650 nm. For imaging, transiently transfected HEK293 cells in complete medium (10% FBS) were plated on the Ibidi μ-Slide for 16 h to promote adherence. Concentrated stock solutions of fluorescent probes in DMSO were serially diluted 500-fold in serum-free DMEM medium to afford 2× stock solutions (0.2% DMSO). Half of the cell culture medium (150 μL) was carefully removed by pipet and gently replaced with the 2× stock solution of the probe in serum-free medium (final [FBS]˜5%). Cells were treated with probes (2 μM) at 37° C. for 2 h before imaging by microscopy. Laser power and PMT gain settings were identical for all images and controls within a given experiment for accurate comparisons of cellular fluorescence.

murine PKCδ-mVenus = murine PKCδ-mVenus (Mus musculus, UniProt P28867); assay: FPCBA saturation binding of probe 1, HEK293 cells expressing PKCδ-mVenus (Example 3)
PKCε = PKCε (Homo sapiens, UniProt Q02156); conditions: radiolabeled PDBu at 4° C.; read-out: Biochemical Ki, PKCε; cited from earlier work
[4] = molecular target: T2, native (untagged) murine PKCβI; assay: FPCBA competition with probe 1, native PKCβI in HEK293 cells; assay type: binding; conditions: read-out: Cellular Ki for native PKCβI (95% confidence interval); probe 1 400 nM, BIM1 2 μM, 2 h at 37° C.
[5] = molecular target: T3, native (untagged) murine PKCζ; assay: FPCBA competition with probe 1, native PKCζ in HEK293 cells; assay type: binding; design: expressed in transfected cells; host or cells: HEK293 (ATCC CRL-1573), transient transfection with pIRES-mVenus carrying the PKC gene; conditions: probe 1 400 nM, BIM1 2 μM, 2 h at 37° C.

T1 sequence (P68404 2-621 limits assumed): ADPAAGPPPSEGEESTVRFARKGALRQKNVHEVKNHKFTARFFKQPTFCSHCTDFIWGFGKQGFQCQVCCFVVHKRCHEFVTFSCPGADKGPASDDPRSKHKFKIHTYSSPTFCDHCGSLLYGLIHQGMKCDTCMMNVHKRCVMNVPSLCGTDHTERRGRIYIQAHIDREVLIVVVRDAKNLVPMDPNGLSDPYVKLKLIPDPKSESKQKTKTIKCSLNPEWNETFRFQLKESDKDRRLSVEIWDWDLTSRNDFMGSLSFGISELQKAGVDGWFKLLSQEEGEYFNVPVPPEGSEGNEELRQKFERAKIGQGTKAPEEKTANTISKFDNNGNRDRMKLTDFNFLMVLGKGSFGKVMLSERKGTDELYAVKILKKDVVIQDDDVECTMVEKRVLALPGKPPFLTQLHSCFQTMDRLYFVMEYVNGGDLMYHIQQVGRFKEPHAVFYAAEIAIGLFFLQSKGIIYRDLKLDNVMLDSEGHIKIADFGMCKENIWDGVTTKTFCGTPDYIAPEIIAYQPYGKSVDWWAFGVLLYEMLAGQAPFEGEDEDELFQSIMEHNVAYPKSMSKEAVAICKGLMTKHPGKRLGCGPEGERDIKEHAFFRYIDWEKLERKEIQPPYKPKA
T2 sequence (P68404 2-673 isoform P68404-2): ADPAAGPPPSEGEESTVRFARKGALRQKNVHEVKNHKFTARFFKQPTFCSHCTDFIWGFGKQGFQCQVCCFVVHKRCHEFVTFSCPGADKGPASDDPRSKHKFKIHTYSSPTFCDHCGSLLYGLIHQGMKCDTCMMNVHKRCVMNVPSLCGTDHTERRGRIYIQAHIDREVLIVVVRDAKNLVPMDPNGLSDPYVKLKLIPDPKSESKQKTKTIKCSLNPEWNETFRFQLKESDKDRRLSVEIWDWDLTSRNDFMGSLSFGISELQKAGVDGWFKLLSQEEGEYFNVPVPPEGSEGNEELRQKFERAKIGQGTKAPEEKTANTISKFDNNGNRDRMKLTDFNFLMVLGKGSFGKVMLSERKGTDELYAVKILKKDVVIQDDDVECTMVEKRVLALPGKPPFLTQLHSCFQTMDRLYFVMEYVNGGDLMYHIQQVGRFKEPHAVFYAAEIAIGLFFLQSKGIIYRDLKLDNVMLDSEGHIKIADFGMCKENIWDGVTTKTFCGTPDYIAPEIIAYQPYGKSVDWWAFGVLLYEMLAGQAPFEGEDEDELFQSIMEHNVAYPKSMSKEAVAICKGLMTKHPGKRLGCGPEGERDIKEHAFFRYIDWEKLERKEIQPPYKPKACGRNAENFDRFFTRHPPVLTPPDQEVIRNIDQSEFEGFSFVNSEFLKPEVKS
T4 sequence (P68404 whole entry): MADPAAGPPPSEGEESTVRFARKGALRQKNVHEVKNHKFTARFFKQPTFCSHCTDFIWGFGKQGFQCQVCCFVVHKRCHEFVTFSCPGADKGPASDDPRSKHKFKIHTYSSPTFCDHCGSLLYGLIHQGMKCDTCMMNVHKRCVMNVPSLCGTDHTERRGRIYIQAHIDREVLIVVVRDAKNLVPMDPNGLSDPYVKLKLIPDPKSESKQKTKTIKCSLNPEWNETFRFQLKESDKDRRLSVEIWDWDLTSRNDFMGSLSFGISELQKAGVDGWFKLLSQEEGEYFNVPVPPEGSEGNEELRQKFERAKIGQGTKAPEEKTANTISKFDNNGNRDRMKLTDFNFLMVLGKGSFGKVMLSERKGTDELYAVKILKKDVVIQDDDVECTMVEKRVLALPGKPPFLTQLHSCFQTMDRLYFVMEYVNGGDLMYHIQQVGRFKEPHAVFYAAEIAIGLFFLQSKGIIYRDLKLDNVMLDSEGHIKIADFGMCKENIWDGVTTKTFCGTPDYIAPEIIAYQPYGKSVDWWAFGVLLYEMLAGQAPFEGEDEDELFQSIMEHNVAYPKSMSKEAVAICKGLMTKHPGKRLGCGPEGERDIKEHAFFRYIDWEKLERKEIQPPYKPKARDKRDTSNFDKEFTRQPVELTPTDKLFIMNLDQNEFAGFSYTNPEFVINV
murine PKCδ-mVenus, sequence (P28867 whole entry): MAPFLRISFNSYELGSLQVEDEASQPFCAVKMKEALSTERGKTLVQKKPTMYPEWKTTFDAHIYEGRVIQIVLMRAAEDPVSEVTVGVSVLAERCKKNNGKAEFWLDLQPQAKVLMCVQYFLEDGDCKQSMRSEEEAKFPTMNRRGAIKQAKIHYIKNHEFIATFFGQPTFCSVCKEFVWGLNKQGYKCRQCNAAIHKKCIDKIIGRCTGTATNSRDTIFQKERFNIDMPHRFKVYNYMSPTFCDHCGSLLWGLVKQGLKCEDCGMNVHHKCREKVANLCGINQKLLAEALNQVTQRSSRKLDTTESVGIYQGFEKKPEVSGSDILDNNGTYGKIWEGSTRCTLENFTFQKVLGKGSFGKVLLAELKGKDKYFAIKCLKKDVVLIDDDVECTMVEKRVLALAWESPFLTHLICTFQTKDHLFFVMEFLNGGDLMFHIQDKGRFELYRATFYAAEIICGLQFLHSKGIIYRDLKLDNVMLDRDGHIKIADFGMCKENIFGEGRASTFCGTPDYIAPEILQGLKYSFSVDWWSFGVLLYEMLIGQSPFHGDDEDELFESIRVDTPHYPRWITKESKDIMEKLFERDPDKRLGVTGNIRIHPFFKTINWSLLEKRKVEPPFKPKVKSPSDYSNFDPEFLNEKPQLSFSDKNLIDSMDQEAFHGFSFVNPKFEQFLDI
PKCε, sequence (Q02156 whole entry): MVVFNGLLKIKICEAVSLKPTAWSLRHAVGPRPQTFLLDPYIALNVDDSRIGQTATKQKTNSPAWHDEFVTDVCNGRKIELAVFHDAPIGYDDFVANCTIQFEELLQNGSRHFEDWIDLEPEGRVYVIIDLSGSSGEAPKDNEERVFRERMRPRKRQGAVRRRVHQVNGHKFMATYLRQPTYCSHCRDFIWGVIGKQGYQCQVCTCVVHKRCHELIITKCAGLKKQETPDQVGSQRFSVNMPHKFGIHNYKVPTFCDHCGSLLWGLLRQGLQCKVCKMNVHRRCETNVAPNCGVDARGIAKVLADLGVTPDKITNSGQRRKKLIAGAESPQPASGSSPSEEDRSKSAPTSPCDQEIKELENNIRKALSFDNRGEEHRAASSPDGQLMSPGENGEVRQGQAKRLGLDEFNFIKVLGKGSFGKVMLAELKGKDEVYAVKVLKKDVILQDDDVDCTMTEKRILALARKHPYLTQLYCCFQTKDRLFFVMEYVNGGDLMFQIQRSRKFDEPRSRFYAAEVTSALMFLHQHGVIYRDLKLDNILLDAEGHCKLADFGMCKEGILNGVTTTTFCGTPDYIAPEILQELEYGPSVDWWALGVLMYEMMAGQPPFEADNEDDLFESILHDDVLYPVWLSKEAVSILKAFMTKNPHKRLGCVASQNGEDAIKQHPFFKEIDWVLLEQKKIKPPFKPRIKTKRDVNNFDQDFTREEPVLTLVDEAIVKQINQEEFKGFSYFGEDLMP

Compound | median blue fluorescence of cells expressing high levels of PKCβI-mVenus vs non-transfected cells (murine PKCβI-mVenus; 1 at 1 μM, 2 h, BIM1 2 μM) | Kd (murine PKCβI-mVenus; BIM1 2 μM, 2 h at 37° C., 4% FBS, read-out: Cellular Kd for probe, PKCβI-mVenus) [nM] | signal-to-background (S/B) (murine PKCβI-mVenus; with BIM1, 1.25 μM probe) | improvement of apparent cellular affinity for PKCβI by BIM1 (murine PKCβI-mVenus; with vs without BIM1) [fold] | Kd (murine PKCα-mVenus) [nM] | half-time (t1/2) of cellular uptake in transfected cells [1] [min] | affinity of native untagged PKCβI relative to PKCβI-mVenus fusion [2] [fold] | Kd ([2]; IRES-mVenus, BIM1 2 μM, 2 h at 37° C., 4% FBS, read-out: Cellular Kd for probe, native PKCβI) [nM] | Cellular Kd for probe, native PKCζ [3] | translocation of PKCβI-mVenus (PKCβI-mVenus) | Kd (murine PKCδ-mVenus) [nM] | Ki (PKCε) [nM] | Ki [4] [nM] | Cellular Ki for native PKCζ [5]
CCCCCCN(CCCCCCCCCCCCNC(=O)c1cc2cc(F)c(O)c(F)c2oc1=O)C(=O)O[C@@]12[C@H](O)[C@@H](C)[C@@]3(O)[C@@H](C=C(CO)C[C@]4(O)C(=O)C(C)=C[C@@H]34)[C@@H]1C2(C)C [probe 1, (1aR,1bS,4aR,7aS,7bS,8R,9R,9aS)-4a,7b,9-trihydroxy-3-(hydroxymethyl)-1,1,6,8-tetramethyl-5-oxo-1,1a,1b,4,4a,5,7a,7b,8,9-decahydro-9aH-cyclopropa[3,4]benzo[1,2-e]azulen-9a-yl (12-(6,8-difluoro-7-hydroxy-2-oxo-2H-chromene-3-carboxamido)dodecyl)(hexyl)carbamate] | ca. 4 fold | 200 | 2.9 | ~2 | 314 ± 37 | 4 | ~2 | 97 | did not bind; also recorded: No binding | translocated to cellular membranes | 657 ± 254 | – | – | –
CCC/C=C/C=C/C(=O)O[C@H]1/C(=C/C(=O)OC)C[C@H]2C[C@H]([C@@H](C)O)OC(=O)C[C@H](O)C[C@@H]3C[C@H](OC(C)=O)C(C)(C)[C@](O)(C[C@@H]4C/C(=C/C(=O)OC)C[C@H](/C=C/C(C)(C)[C@]1(O)O2)O4)O3 [bryostatin 1] | – | – | – | – | – | – | – | – | – | – | – | 3 | 4 | No binding
